Laboratory results as given in US10450274B2, “Quinoline compounds, preparation methods thereof, and uses thereof as urate transporter inhibitor drug” (HINOVA PHARMACEUTICALS INC., priority 2015, dated 2019).
Several values for one entry are separate records, joined by “and”; a condition that tells them apart may be missing. Equal values may be shown once.

target: T1, hURAT1 (Homo sapiens, UniProt Q96S37); assay: Inhibitory activity against URAT1: 14C-labelled uric acid uptake in HEK-293t cells stably expressing hURAT1; type: cell-based; details: HEK-293t/hURAT1 cells, 14C uric acid uptake, 5 minutes at room temperature; Ref Cpd 2, 83, Ref Cpd 3 and 129 are averages of head-to-head tests; read-out: IC50 (nM) of hURAT1 inhibitory activity
T1 sequence (Q96S37 1-553): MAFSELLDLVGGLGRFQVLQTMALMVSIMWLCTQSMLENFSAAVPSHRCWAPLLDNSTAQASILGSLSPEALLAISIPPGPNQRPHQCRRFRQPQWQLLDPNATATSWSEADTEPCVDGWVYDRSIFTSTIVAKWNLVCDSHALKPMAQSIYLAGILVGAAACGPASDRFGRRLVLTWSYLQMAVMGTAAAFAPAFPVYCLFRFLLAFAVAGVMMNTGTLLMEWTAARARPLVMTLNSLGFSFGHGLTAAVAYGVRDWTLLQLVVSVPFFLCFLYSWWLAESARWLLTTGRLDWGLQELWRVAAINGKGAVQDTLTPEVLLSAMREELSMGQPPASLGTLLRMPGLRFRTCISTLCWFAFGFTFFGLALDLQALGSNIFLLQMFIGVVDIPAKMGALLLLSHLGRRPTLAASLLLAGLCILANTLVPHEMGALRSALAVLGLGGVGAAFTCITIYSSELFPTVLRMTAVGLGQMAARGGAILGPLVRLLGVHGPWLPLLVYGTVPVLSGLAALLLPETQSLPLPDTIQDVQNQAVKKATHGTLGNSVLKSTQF
Text: • Test example: Determination of the inhibitory activity of compounds according to the present invention against URAT1 Experimental Materials • FBS (Invitrogen, Cat. No. 10099141) • Trypsin (Invitrogen, Cat. No. 25200056) • DPBS (Invitrogen, Cat. No. 14190250) • DMEM (Invitrogen, Cat. No. 10564) • Penicillin-Streptomycin (Invitrogen, Cat. No. 15070-063) • TransIT-293 Transfection Reagent (MIRUS BIO, Cat. No. MIR2706) • Opti-MEM® I Reduced Serum Medium (Invitrogen, Cat. No. 31985-070) • URAT1 plasmid (Genecopoeia, Cat. No. EX-T4563-M03) • Uric acid [8-14C] (ARC, Cat. No. ARC0513-250UCI) • Ultima Gold™ XR (PerkinElmer, Cat. No. 6013111) • Benzbromarone (J&K Scientific, Cat. No. 3562-84-3) • D-Gluconic acid sodium salt (Aladdin, Cat. No. 527-07-1) • Potassium D-gluconate (Aladdin, Cat. No. 299-27-4) • Calcium gluconate (Aladdin, Cat. No. 299-28-5) • DMSO (Sigma, Cat. No. D2650) • Tube, 15 ml (Greiner, Cat. No. 07030115) • Tube, 50 ml (BD Falcon, Cat. No. 352098) • Poly-D-lysine 96-well microplates (BD, Cat. No. 356461) • Isoplate-96 Microplate (PERKIN ELMER, Cat. No. 6005040) Experimental Method:
Cell Culture: • 1. The HEK-293t cells that expressed the stable expression of hURAT1 were cultured in DMEM medium containing 10% FBS and 1% P/S, and incubated overnight in the incubator at 37° C. under 5% carbon dioxide. • 2. the culture medium was removed, and the cells were washed with PBS, and then the pancreatin was added to digest for 2 minutes. After the cell is separated from the dish, 10 ml of medium was added to terminate digestion. • 3. The cells were placed into a centrifugal apparatus and centrifugated for 2 minutes at the speed of 1000 rpm, followed by the addition of fresh 10 mL medium to resuspend the cells, and calculate the number of cells. The number of cells was adjusted to 4×10^5 cells/mL. • 4. the above counted cells were inoculated into the 96-well plate at 100 μL/well. • 5. The 96-well plate with inoculated cells was placed in a 37° C. cell incubator and cultivated overnight.
The uric acid absorption experiment labeled with isotope C14: • 1. 5 mL of Cl-free HBSS buffer was added to a 15 mL centrifuge tube, followed by the addition of the uric acid labeled with C14, and the concentration of uric acid was 2 uCi/ml. • 2. The medium in the 96-well plate that was previously cultivated overnight was removed, and the plate was washed three times with […] preheated Cl-free HBSS buffer. • 3. The buffer in the well-washed 96-well plate was removed. • 4. […] Cl-free HBSS buffer containing C-14 labeled uric acid was added into each well in the cleaned 96-well plate, and then DMSO solution of the compound that needs to be tested was added. • 5. After the 96-well plate stood for 5 minutes at room temperature, all the liquid in it was removed. • 6. […] precooled Cl-free HBSS buffer was added to wash the plate three times. • 7. After the remained liquid in the plates was completely removed, 50 μL cell lysis was added to each well, and the plate was agitated on the mixer at a speed of 600 revolutions/min for 10 minutes. • 8. After 50 μL Ultima Gold™ XR scitillation cocktail fluid was added, the plate was continued to agitate for 10 minutes. The well-agitated plate was sealed, and the data was read on MicroBeta Trilux. • 9. The test compound was dissolved in DMSO, and DMSO at the same concentration was added to the HEK293/hURAT1 cell well without test compounds. […] The radiation value obtained from the well containing DMSO is considered to be 100% of the cell uptake. The IC50 values of compounds can be calculated by the inhibition rate at different concentrations.
Among them, reference compound 1 was synthesized according to the method described in patent WO 2011/159839 A2. Reference compound 2 and reference compound 3 were synthesized according to the method described in patent WO 2014/183555 A1, and they were head-to-head tested with compounds 83 and 129 respectively under the same conditions.

Row | SMILES | IC50
1 | CCOc1cccc(-c2ccc3nccc(SC(CC)(CC)C(=O)O)c3c2)c1 [Compound 113, 2-(6-(3-ethoxy-phenyl)-quinolin-4-ylthio)-2-ethylbutanoic acid] | 109 nM
2 | CCCC(CCC)(Sc1ccnc2ccc(Br)cc12)C(=O)O [Compound 114, 2-(6-bromoquinolin-4-ylthio)-2-propylpentanoic acid] | 203 nM
3 | COc1cc(-c2ccc3nccc(SC(C)(C)C(=O)O)c3c2)ccn1 [Compound 115, 2-(6-(2-methoxypyridin-4-yl)quinolin-4-ylthio)-2-methylpropanoic acid] | 79 nM
4 | CCC(CC)(Sc1ccnc2ccc(-c3ccnc(OC)c3)cc12)C(=O)O [Compound 116, 2-(6-(2-methoxypyridin-4-yl)quinolin-4-ylthio)-2-ethylbutanoic acid] | 98 nM
5 | CC(C)(Sc1ccnc2ccc(-c3ccnc(F)c3)cc12)C(=O)O [Compound 117, 2-(6-(2-fluoropyridin-4-yl)-quinolin-4-ylthio)-2-methylpropanoic acid] | 272 nM
6 | CCC(CC)(Sc1ccnc2ccc(-c3ccncc3)cc12)C(=O)O [Compound 119, 2-(6-(pyridin-4-yl)quinolin-4-ylthio)-2-ethylbutanoic acid] | 133 nM
7 | Cc1cc(-c2ccc3nccc(SC(C)(C)C(=O)O)c3c2)ccn1 [Compound 120, 2-(6-(2-methylpyridin-4-yl)quinolin-4-ylthio)-2-methylpropanoic acid] | 1240 nM
8 | CCC(CC)(Sc1ccnc2ccc(-c3ccnc(C)c3)cc12)C(=O)O [Compound 121, 2-(6-(2-methylpyridin-4-yl)-quinolin-4-ylthio)-2-ethylbutanoic acid] | 360 nM
9 | CCC(CC)(Sc1ccnc2ccccc12)C(=O)O [Compound 129] | 201 nM
10 | O=C(O)C1(Sc2ccnc3ccc(Br)cc23)CCC1 [Ref Cpd 2, reference compound] | 138 nM
11 | O=C(O)C1(Sc2ccnc3ccccc23)CCC1 [Ref Cpd 3, reference compound] | 794 nM
12 | CC(C)(Sc1ccncc1-c1ccc(C#N)c2ccccc12)C(=O)O [Ref cpd 1 (RDEA3170), reference compound] | 154 nM

same assay, conditions: average of the multiple head-to-head comparison tests, Table 2; read-out: Average (IC50 of multiple determinations)

Row | SMILES | IC50
13 | O=C(O)C1(Sc2ccnc3ccc(Br)cc23)CCC1 [Ref Cpd 2, reference compound] | 138 nM

same assay, conditions: single determinations of multiple head-to-head tests, Ref cpd 2 vs Cpd 83; read-out: Multiple determination data (IC50)

Row | SMILES | IC50
14 | O=C(O)C1(Sc2ccnc3ccc(Br)cc23)CCC1 [Ref Cpd 2, reference compound] | 72.9 nM and 185 nM and 172 nM and 164 nM and 144 nM and 127 nM and 99 nM
